Experimental findings from patent publication US20260250318A1, “COMPOSITIONS AND METHODS FOR CROSSING THE BLOOD BRAIN BARRIER” (VOYAGER THERAPEUTICS, INC., priority 2022, published 2026) are described below.

The assay has as its system brain. The assay is described as follows: Maturation of TTM-002 capsid, NGS enrichment in brain of CD-1 Outbred mice. The assay is classed as in vivo. To be noted: NGS fold-enrichment in the brain of CD-1 Outbred mice; intravenous, 1.0×10^12 VG/dose, 14 days; RNA; relative to non-matured TTM-002 control. The text has this: This Example describes maturation of the TTM-001 (SEQ ID NO: 981 (amino acid) and 983 (DNA), comprising SEQ ID NO: 941) and TTM-002 (SEQ ID NO: 982 (amino acid) and 984 (DNA), comprising SEQ ID NO: 2) capsid variants to further enhance their transduction and biodistribution in the central nervous system and evolve the AAV capsid variants to provide further cross-species compatibility. Two approaches were used to mature the TTM-001 and TTM-002 capsid sequences in order to randomize and mutate within and around the peptide insert comprised within loop IV of the capsid variant. […] In the first maturation approach, sets of three contiguous amino acids were randomized across the mutagenesis region in the TTM-001 and TTM-002 sequences, which spanned from position 450 to position 466, numbered according to SEQ ID NO: 981 and 982. In the second maturation approach, mutagenic primers were used to introduce point mutations at a low frequency, scattered across the mutagenesis region in the TTM-001 and TTM-002 sequences ranging from position 449 to position 466, numbered according to SEQ ID NO: 981 and 982. AAV capsid variants arising from each maturation approach for TTM-001 were pooled together and AAV capsid variants arising from each maturation approach for TTM-002 were also pooled together, for subsequent testing and characterization in mice.
The library of pooled matured AAV capsid variants generated from TTM-001 or library of pooled matured AAV capsid variants generated from the TTM-002 matured AAV capsid variant each were intravenously injected into the tail vein of three female CD-1 Outbred mice (Charles River) at a dose of 1.0×10^12 VG/dose. After 14-days in life, the brains of the mice were isolated and RNA was extracted. Following RNA recovery and RT-PCR amplification, a systematic NGS enrichment analysis was performed to calculate the fold enrichment ratio relative to the corresponding TTM-001 or TTM-002 control, and the peptides comprised within the variants were identified. The data for the TTM-001 matured capsid variants is provided in Table 13 and the data for the TTM-002 matured capsid variants is provided in Table 14.

On to KIESGHDSPHKSGQNQQT, for which the “Fold enrichment over TTM-002” value was 2.11.

On to KIEYGHDSPHKSGQNQQT, for which the “Fold enrichment over TTM-002” value is 2.41.

On to KTINGHDSPHKSRQNDQT, for which the “Fold enrichment over TTM-002” value is reported as 2.01.

With KTPWEHDSPHKSGQNQQT, the “Fold enrichment over TTM-002” value was 2.05.

As for KLEYGHDSPHKSGQNQQT, the “Fold enrichment over TTM-002” value is listed as 2.33.

Regarding KTINGHDSPHLLWQNQQT, the “Fold enrichment over TTM-002” value is on record as 2.12.

KTINGHDSPHINGQKQQT (KTINGHDSPHTNGQKQQT): the “Fold enrichment over TTM-002” value was found to be 2.38.

Take KIPEGHDSPHKSGQNQQT: the “Fold enrichment over TTM-002” value stood at 2.54.

Turning to KAEVGHDSPHKSGQNQQT, the “Fold enrichment over TTM-002” value stood at 2.15.

Turning to KIINGHDSPHKSGLTQQT, the “Fold enrichment over TTM-002” value worked out at 2.17.

For KTGNGHDSPHKSGQYQQT, the “Fold enrichment over TTM-002” value was 2.03.

Consider KTINGHPSPHYLGQNQQT, for which the “Fold enrichment over TTM-002” value is listed as 2.14.

Consider KTINRQRSPHKSGQNQQT, for which the “Fold enrichment over TTM-002” value worked out at 2.11.

Turning to KMEVGHDSPHKSGQNQQT, the “Fold enrichment over TTM-002” value is listed as 2.11.

Take KMPEGHDSPHKSGQNQQT: the “Fold enrichment over TTM-002” value is recorded as 3.18.

Take KATNGHDSPHKSGLNQQT: the “Fold enrichment over TTM-002” value is 2.10.

Turning to KLPEGHDSPHKSGQNQQT, the “Fold enrichment over TTM-002” value was found to be 2.19.

In the case of KAEQGHDSPHKSGQNQQT, the “Fold enrichment over TTM-002” value worked out at 2.14.

Take KMDAGHDSPHKSGQNQQT: the “Fold enrichment over TTM-002” value was determined as 2.15.

For KTAKDHDSPHKSGQNQQT, the “Fold enrichment over TTM-002” value is 2.11.

On to KTINGHDSPHKSGRRRQT, for which the “Fold enrichment over TTM-002” value came to 2.04.

As for “KVEYGHDSPHKSGQNQQT (peptide inserted in AAV capsid)”, the “Fold enrichment over TTM-002” value is 2.17.

As to KTINGHDSPHLCGQNQQT, the “Fold enrichment over TTM-002” value was found to be 2.59.

In the case of KMELGHDSPHKSGQNQQT, the “Fold enrichment over TTM-002” value amounted to 2.13.

Regarding KHDWGHDSPHKSGQNQQT, the “Fold enrichment over TTM-002” value is reported as 2.00.

Consider KADYGHDSPHKSGQNQQT, for which the “Fold enrichment over TTM-002” value was 2.40.

With KVEWGHDSPHKSGQNQQT, the “Fold enrichment over TTM-002” value was determined as 2.15.

KQEVGHDSPHKSGQNQQT: the “Fold enrichment over TTM-002” value amounted to 2.07.

For the sequence KMEIGHDSPHKSGQNQQT, the “Fold enrichment over TTM-002” value is 2.34.

Take KAEWGHDSPHKSGQNQQT: the “Fold enrichment over TTM-002” value was 2.69.

For KFEQGHDSPHKSGQNQQT, the “Fold enrichment over TTM-002” value was found to be 2.22.

Regarding KMEWGHDSPHKSGQNQQT, the “Fold enrichment over TTM-002” value turned out to be 2.38.

With KIENGHDSPHKSGQNQQT, the “Fold enrichment over TTM-002” value came to 2.19.

Regarding KMEMGHDSPHKSGQNQQT, the “Fold enrichment over TTM-002” value came out at 2.16.

Consider KTINGHDSPHKRGQHRQT, for which the “Fold enrichment over TTM-002” value is 4.20.

On to KTIKDNDSPHKSGQNQQT, for which the “Fold enrichment over TTM-002” value is 2.27.

With KISNGHDSPHKSAQNQQT, the “Fold enrichment over TTM-002” value stood at 2.03.

As for KMDGGHDSPHKSGQNQQT, the “Fold enrichment over TTM-002” value is 2.09.

As to KTINGHLSPHYYGQNQQT, the “Fold enrichment over TTM-002” value was determined as 2.13.

KMETGHDSPHKSGQNQQT: the “Fold enrichment over TTM-002” value was 2.12.

Consider KCEIGHDSPHKSGQNQQT, for which the “Fold enrichment over TTM-002” value is on record as 2.10.

With KTPQDHDSPHKSGQNQQT, the “Fold enrichment over TTM-002” value was determined as 2.00.

For KMEGGHDSPHKSGQNQQT, the “Fold enrichment over TTM-002” value is listed as 2.72.

For the sequence KNMNGHDSPHKSGQNTHS, the “Fold enrichment over TTM-002” value was 2.06.
